{"source": "patent US20030232851A1", "about": "“Viral treatment” (The Procter & Gamble Company, priority 1999, published 2003)", "assay_type_in_all_cases": "cell-based", "key": {"HIV-1 cell line, CEMRF": {"test_system": "HIV-1 cell line, CEMRF", "conditions": "for reverse transcriptase data: 7 μg/ml", "procedure": "(§1) A microtiter-based reveres transcriptase (RT) reaction is utilized (Buckheit et al (1991) AIDS Research and Human Retroviruses 7:295-302). Tritiated thymidine triphosphate (NEN)(TTP) is resuspended in distilled water at 5 Ci/ml. Poly rA and oligo dT are prepared as a stock solution which is kept at −20° C. The RT reaction buffer is prepared fresh on a daily basis and consists of 125 μl 1M EGTA, 125 μl water, 125 μl Triton X-100, 50 μl Tris (pH 7.4), 50 μl 1 MDDT, and 40 μl 1M MgCl2. These three solutions are mixed together in a ratio of 1 part TTP, 2.5 parts poly rA:oligo dT, 2.5 parts reaction buffer and 4 parts distilled water. Ten microliters of this reaction mixture is placed in a round bottom microtiter place and 15 μl of virus containing supernatant is added and mixed. The plate is incubated at 37° C. for 60 minutes. Following reaction, the reaction volume is spotted onto filter mats, washed 6 times for 5 minutes each in a 5% sodium phosphate buffer, 2 times for 1 minute each in distilled water, 2 times for 1 minute each in 70% ethanol, and then dried. The dried filter mat is placed in a plastic sample bag, Betaplate scintillation fluid is added and the bag is heat sealed. Incorporated radioactivity is quantified utilizing a Wallac Microbeta scintillation counter.\n(§2) Acute infection of most established human cell lines with HIV-1 results in the eventual establishment of a constitutive virus-producing chronically infected cell line. The cells can be passaged for long periods of time in culture without loss of virus production. These cells may be utilized to evaluate the effects of anti-HIV compounds on syncytium formation or to evaluate the effects of anti-HIV compounds on levels of virus production from these cells. […] Each of the cells contains an integrated HIV genome or provirus. Chronically infected CEM, H9 and U937 cell lines have been prepared and cultured by Southern Research Institute, Frederick Md. and are available from them.\n(§3) CEM-SS cells chronically infected with HIV isolate, for example SKI (CEM-SKI) are cultured in RPMI1640 tissue culture medium supplemented with 10% fetal bovine serum and antibiotics. Selection is performed by culturing the cells in the presence of the compound to be tested in T25 flasks. CEM-SKI or other infected cells with no added drug are used as the control cells. Cells are allowed to grow to a density of approximately 1×10^6 cells/ml and are then passaged at a 1:10 dilution. […] The drug concentration in the flask is then increased two-fold and the cells maintained as above.\n(§4) The cell populations contain integrated copies of the HIV genome and constitutively produce HIV at relatively high levels or are latently infected and only produce virus after stimulation with phorbol esters, tumor necrosis factor or IL6 (U1 and ACH2).\nA long term in vitro study of 2-(2-thienyl)-imidazolo [4,5-b]pyridine against an HIV-1 cell line, CEMRF, was conducted at three different levels. […] CEMRF is a chronic HIV cell line."}, "HIV-1 cell line, CEMIIIB": {"test_system": "HIV-1 cell line, CEMIIIB", "test": "Long term in vitro study, CEMIIIB, reverse transcriptase", "procedure": "as §1, §2\nas §3, with “Selection is performed by culturing the cells in the presence of the compound to be tested in T25 flasks.” left out\nas §4, with “ACH2). Reductions in virus products were observed when quantifying supernatant reverse transcriptase activity,” for “ACH2).”\nA long term in vitro study of 2-(2-thienyl)-imidazolo [4,5-b]pyridine against an HIV-1 cell line, CEMIIIB was conducted at three different levels. The results with CEMIIIB cells were reported at weekly intervals. The CEMIIIB is a viral strain of the CEMSS cell line and is a chronic HIV cell line."}, "TPA-induced BCBL-1 cells": {"test_system": "TPA-induced BCBL-1 cells", "test": "Kaposi's Sarcoma test: toxicity values", "parameters": "Toxicity Values, samples 1-3 / Toxicity Values, average: scale not given here", "procedure": "The DNA copy number and the toxicity value were measured and compared with Cidofovir."}}, "note": "Values joined by “and” are separate entries in the source; they are usually repeats but may differ in a detail not shown here. Equal values may be shown once. Read-outs that look alike come from different tables or passages of the source."}
{"smiles": "c1csc(-c2nc3cccnc3[nH]2)c1", "note": "[2-(2-thienyl)-imidazolo [4,5-b]pyridine]", "values": [{"measurement": "reverse transcriptase data", "setting": "HIV-1 cell line, CEMRF; day 4", "value": 6521}, {"measurement": "reverse transcriptase data", "setting": "HIV-1 cell line, CEMRF; day 67", "value": 9241}, {"measurement": "reverse transcriptase data", "setting": "HIV-1 cell line, CEMRF; day 71", "value": 8422}, {"measurement": "reverse transcriptase data", "setting": "HIV-1 cell line, CEMRF; day 74", "value": 8643}, {"measurement": "resistance developing", "setting": "HIV-1 cell line, CEMRF; by day 186 at the 15 and 30 μg/ml level", "value": "no indication of resistance developing"}, {"measurement": "reverse transcriptase data on continuation (in words)", "setting": "HIV-1 cell line, CEMRF; run through 242 days", "value": "data remained consistent"}, {"measurement": "reverse transcriptase data", "setting": "HIV-1 cell line, CEMIIIB; 7 μg/ml, day 4", "value": 4631}, {"measurement": "reverse transcriptase data", "setting": "HIV-1 cell line, CEMIIIB; 7 μg/ml, day 11", "value": 4222}, {"measurement": "reverse transcriptase data", "setting": "HIV-1 cell line, CEMIIIB; 7 μg/ml, day 18", "value": 843}, {"measurement": "reverse transcriptase data", "setting": "HIV-1 cell line, CEMIIIB; 7 μg/ml, day 25", "value": 1052}, {"measurement": "reverse transcriptase data", "setting": "HIV-1 cell line, CEMIIIB; 7 μg/ml, day 32", "value": 1456}, {"measurement": "reverse transcriptase data", "setting": "HIV-1 cell line, CEMIIIB; 7 μg/ml, day 39", "value": 4298}, {"measurement": "reverse transcriptase data", "setting": "HIV-1 cell line, CEMIIIB; 7 μg/ml, day 46", "value": 1643}, {"measurement": "reverse transcriptase data", "setting": "HIV-1 cell line, CEMIIIB; 7 μg/ml, day 53", "value": 1458}, {"measurement": "reverse transcriptase data", "setting": "HIV-1 cell line, CEMIIIB; 7 μg/ml, day 60", "value": 1409}, {"measurement": "reverse transcriptase data", "setting": "HIV-1 cell line, CEMIIIB; 7 μg/ml, day 67", "value": 1903}, {"measurement": "reverse transcriptase data", "setting": "HIV-1 cell line, CEMIIIB; 7 μg/ml, day 71", "value": 1832}, {"measurement": "reverse transcriptase data", "setting": "HIV-1 cell line, CEMIIIB; 7 μg/ml, day 74", "value": 1980}, {"measurement": "reverse transcriptase data", "setting": "HIV-1 cell line, CEMIIIB; 7 μg/ml, day 88", "value": 1520}, {"measurement": "reverse transcriptase data", "setting": "HIV-1 cell line, CEMIIIB; 7 μg/ml, day 95", "value": 1367}, {"measurement": "reverse transcriptase data", "setting": "HIV-1 cell line, CEMIIIB; 7 μg/ml, day 102", "value": 1497}, {"measurement": "reverse transcriptase data", "setting": "HIV-1 cell line, CEMIIIB; 7 μg/ml, day 109", "value": 1165}, {"measurement": "reverse transcriptase data", "setting": "HIV-1 cell line, CEMIIIB; 15 μg/ml, day 4", "value": 5622}, {"measurement": "reverse transcriptase data", "setting": "HIV-1 cell line, CEMIIIB; 15 μg/ml, day 11", "value": 1828}, {"measurement": "reverse transcriptase data", "setting": "HIV-1 cell line, CEMIIIB; 15 μg/ml, day 18", "value": 683}, {"measurement": "reverse transcriptase data", "setting": "HIV-1 cell line, CEMIIIB; 15 μg/ml, day 25", "value": 741}, {"measurement": "reverse transcriptase data", "setting": "HIV-1 cell line, CEMIIIB; 15 μg/ml, day 32", "value": 1005}, {"measurement": "reverse transcriptase data", "setting": "HIV-1 cell line, CEMIIIB; 15 μg/ml, day 39", "value": 948}, {"measurement": "reverse transcriptase data", "setting": "HIV-1 cell line, CEMIIIB; 15 μg/ml, day 46", "value": 1361}, {"measurement": "reverse transcriptase data", "setting": "HIV-1 cell line, CEMIIIB; 15 μg/ml, day 53", "value": 1281}, {"measurement": "reverse transcriptase data", "setting": "HIV-1 cell line, CEMIIIB; 15 μg/ml, day 60", "value": 679}, {"measurement": "reverse transcriptase data", "setting": "HIV-1 cell line, CEMIIIB; 15 μg/ml, day 67", "value": 1251}, {"measurement": "reverse transcriptase data", "setting": "HIV-1 cell line, CEMIIIB; 15 μg/ml, day 71", "value": 1241}, {"measurement": "reverse transcriptase data", "setting": "HIV-1 cell line, CEMIIIB; 15 μg/ml, day 74", "value": 1361}, {"measurement": "reverse transcriptase data", "setting": "HIV-1 cell line, CEMIIIB; 15 μg/ml, day 88", "value": 1201}, {"measurement": "reverse transcriptase data", "setting": "HIV-1 cell line, CEMIIIB; 15 μg/ml, day 95", "value": 562}, {"measurement": "reverse transcriptase data", "setting": "HIV-1 cell line, CEMIIIB; 15 μg/ml, day 102", "value": 1043}, {"measurement": "reverse transcriptase data", "setting": "HIV-1 cell line, CEMIIIB; 15 μg/ml, day 109", "value": 1036}, {"measurement": "reverse transcriptase data", "setting": "HIV-1 cell line, CEMIIIB; 30 μg/ml, day 4", "value": 1968}, {"measurement": "reverse transcriptase data", "setting": "HIV-1 cell line, CEMIIIB; 30 μg/ml, day 11", "value": 2145}, {"measurement": "reverse transcriptase data", "setting": "HIV-1 cell line, CEMIIIB; 30 μg/ml, day 18", "value": 554}, {"measurement": "reverse transcriptase data", "setting": "HIV-1 cell line, CEMIIIB; 30 μg/ml, day 25", "value": 436}, {"measurement": "reverse transcriptase data", "setting": "HIV-1 cell line, CEMIIIB; 30 μg/ml, day 32", "value": 712}, {"measurement": "reverse transcriptase data", "setting": "HIV-1 cell line, CEMIIIB; 30 μg/ml, day 39", "value": 520}, {"measurement": "reverse transcriptase data", "setting": "HIV-1 cell line, CEMIIIB; 30 μg/ml, day 46", "value": 281}, {"measurement": "reverse transcriptase data", "setting": "HIV-1 cell line, CEMIIIB; 30 μg/ml, day 53", "value": 543}, {"measurement": "reverse transcriptase data", "setting": "HIV-1 cell line, CEMIIIB; 30 μg/ml, day 60", "value": 406}, {"measurement": "reverse transcriptase data", "setting": "HIV-1 cell line, CEMIIIB; 30 μg/ml, day 67", "value": 391}, {"measurement": "reverse transcriptase data", "setting": "HIV-1 cell line, CEMIIIB; 30 μg/ml, day 71", "value": 281}, {"measurement": "reverse transcriptase data", "setting": "HIV-1 cell line, CEMIIIB; 30 μg/ml, day 74", "value": 651}, {"measurement": "reverse transcriptase data", "setting": "HIV-1 cell line, CEMIIIB; 30 μg/ml, day 88", "value": 241}, {"measurement": "reverse transcriptase data", "setting": "HIV-1 cell line, CEMIIIB; 30 μg/ml, day 95", "value": 102}, {"measurement": "reverse transcriptase data", "setting": "HIV-1 cell line, CEMIIIB; 30 μg/ml, day 102", "value": 256}, {"measurement": "reverse transcriptase data", "setting": "HIV-1 cell line, CEMIIIB; 30 μg/ml, day 109", "value": 376}, {"measurement": "reverse transcriptase data on continuation (in words)", "setting": "HIV-1 cell line, CEMIIIB; run through 242 days", "value": "data remained consistent"}, {"measurement": "Toxicity Values, % cell control", "setting": "TPA-induced BCBL-1 cells; 0.64 μM", "value": 110.5, "unit": "%"}, {"measurement": "Toxicity Values, average", "setting": "TPA-induced BCBL-1 cells; 0.64 μM", "value": 1.160}, {"measurement": "Toxicity Values, samples 1-3", "setting": "TPA-induced BCBL-1 cells; 0.64 μM", "value": "1.034 and 1.201 and 1.245"}, {"measurement": "Toxicity Values, % cell control", "setting": "TPA-induced BCBL-1 cells; 2 μM", "value": 111.7, "unit": "%"}, {"measurement": "Toxicity Values, average", "setting": "TPA-induced BCBL-1 cells; 2 μM", "value": 1.172}, {"measurement": "Toxicity Values, samples 1-3", "setting": "TPA-induced BCBL-1 cells; 2 μM", "value": "1.155 and 1.182 and 1.179"}, {"measurement": "Toxicity Values, % cell control", "setting": "TPA-induced BCBL-1 cells; 6.4 μM", "value": 111.5, "unit": "%"}, {"measurement": "Toxicity Values, average", "setting": "TPA-induced BCBL-1 cells; 6.4 μM", "value": 1.170}, {"measurement": "Toxicity Values, samples 1-3", "setting": "TPA-induced BCBL-1 cells; 6.4 μM", "value": "1.198 and 1.119 and 1.193"}, {"measurement": "Toxicity Values, % cell control", "setting": "TPA-induced BCBL-1 cells; 20 μM", "value": 69.5, "unit": "%"}, {"measurement": "Toxicity Values, average", "setting": "TPA-induced BCBL-1 cells; 20 μM", "value": 0.729}, {"measurement": "Toxicity Values, samples 1-3", "setting": "TPA-induced BCBL-1 cells; 20 μM", "value": "0.701 and 0.706 and 0.782"}, {"measurement": "Toxicity Values, % cell control", "setting": "TPA-induced BCBL-1 cells; 64 μM", "value": 1.5, "unit": "%"}, {"measurement": "Toxicity Values, average", "setting": "TPA-induced BCBL-1 cells; 64 μM", "value": 0.016}, {"measurement": "Toxicity Values, samples 1-3", "setting": "TPA-induced BCBL-1 cells; 64 μM", "value": "0.020 and 0.016 and 0.013"}, {"measurement": "Toxicity Values, % cell control", "setting": "TPA-induced BCBL-1 cells; 200 μM", "value": 6.4, "unit": "%"}, {"measurement": "Toxicity Values, average", "setting": "TPA-induced BCBL-1 cells; 200 μM", "value": 0.067}, {"measurement": "Toxicity Values, samples 1-3", "setting": "TPA-induced BCBL-1 cells; 200 μM", "value": "0.068 and 0.067"}]}
